# Source: US11180474B2 (BRISTOL-MYERS SQUIBB COMPANY, priority 2016, dated 2021)
# Where a name gives a salt, the structure may show the parent alone.
# Biological target: T1, human TLR9 (Homo sapiens, UniProt Q9NR96)
# T1 construct: host or cells: HEK-Blue cells
# T1 sequence (Q9NR96 26-1032): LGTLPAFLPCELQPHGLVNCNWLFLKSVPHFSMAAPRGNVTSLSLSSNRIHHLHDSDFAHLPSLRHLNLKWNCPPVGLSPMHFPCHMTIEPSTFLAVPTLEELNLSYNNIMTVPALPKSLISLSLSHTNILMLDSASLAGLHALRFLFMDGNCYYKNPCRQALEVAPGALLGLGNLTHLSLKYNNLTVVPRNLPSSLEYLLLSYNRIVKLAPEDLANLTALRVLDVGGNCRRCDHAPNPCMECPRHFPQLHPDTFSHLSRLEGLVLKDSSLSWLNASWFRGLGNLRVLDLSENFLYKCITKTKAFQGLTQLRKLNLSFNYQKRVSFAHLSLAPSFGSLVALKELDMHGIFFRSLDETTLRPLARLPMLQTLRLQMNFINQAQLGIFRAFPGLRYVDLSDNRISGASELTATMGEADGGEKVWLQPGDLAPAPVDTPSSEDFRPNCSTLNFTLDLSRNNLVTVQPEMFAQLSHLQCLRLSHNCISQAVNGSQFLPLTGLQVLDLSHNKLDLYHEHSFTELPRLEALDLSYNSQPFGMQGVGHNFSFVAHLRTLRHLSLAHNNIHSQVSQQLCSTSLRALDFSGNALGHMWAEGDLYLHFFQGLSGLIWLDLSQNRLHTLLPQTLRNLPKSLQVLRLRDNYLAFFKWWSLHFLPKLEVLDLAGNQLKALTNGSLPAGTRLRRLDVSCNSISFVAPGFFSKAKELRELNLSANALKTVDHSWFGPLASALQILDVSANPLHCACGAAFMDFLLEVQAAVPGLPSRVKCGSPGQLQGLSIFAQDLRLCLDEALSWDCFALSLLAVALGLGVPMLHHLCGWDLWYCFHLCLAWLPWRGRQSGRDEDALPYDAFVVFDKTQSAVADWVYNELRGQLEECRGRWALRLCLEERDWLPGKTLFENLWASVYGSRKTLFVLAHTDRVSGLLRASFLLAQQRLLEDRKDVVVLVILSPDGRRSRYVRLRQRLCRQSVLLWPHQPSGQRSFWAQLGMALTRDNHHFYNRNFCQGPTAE
# Assay: TLR9 inhibition reporter assay (HEK-Blue cells, SEAP reporter, ODN2006 stimulation)
# Format: cell-based
# Details: HEK-Blue cells overexpressing human TLR9, ODN2006 5 nM
# Method in brief: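 Agonists used: gardiquimod 7.5 μM (TLR7), R848 15.9 μM (TLR8), ODN2006 5 nM (TLR9), added after 30 min room-temperature compound pre-treatment (0.05 nM–50 μM) of receptor-overexpressing HEK-Blue cells. SEAP reporter (NF-κB/AP-1 driven) read after 22 h at 37 °C; inhibition scaled between agonist+DMSO and reference-inhibitor wells.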
row,IC50 [nM],Structure (SMILES)
1,≥ 50000,"COc1ccc(-c2[nH]c3ccc(C4CCN(C(=O)Cc5c[nH]c6ccccc56)CC4)cc3c2CC(F)(F)F)cc1OC [Example 332, 1-(4-(2-(3,4-dimethoxyphenyl)-3-(2,2,2-trifluoroethyl)-1H-indol-5-yl)piperidin-1-yl)-2-(1H-indol-3-yl)ethan-1-one]"
2,2280,"COc1ccc(-c2[nH]c3ccc(C4CCN(C)CC4)cc3c2CC(F)(F)F)cc1OC [Example 355, 2-(3,4-dimethoxyphenyl)-5-(1-methylpiperidin-4-yl)-3-(2,2,2-trifluoroethyl)-1H-indole]"
3,2870,"COc1ccc(-c2[nH]c3ccc(C4CCNCC4F)cc3c2C(C)C)cc1OC (single isomer, unassigned) [Example 323, 2-(3,4-dimethoxyphenyl)-5-(3-fluoropiperidin-4-yl)-3-isopropyl-1H-indole]"
4,701,"COc1ccc(-c2[nH]c3ccc(C4CCN(CC(=O)NCCN5CCCC5)CC4)cc3c2CC(F)(F)F)cc1OC [Example 375, 2-(4-(2-(3,4-dimethoxyphenyl)-3-(2,2,2-trifluoroethyl)-1H-indol-5-yl)piperidin-1-yl)-N-(2-(pyrrolidin-1-yl)ethyl)acetamide]"
5,≥ 50000,"COc1ccc(-c2[nH]c3ccc(C4CCN(C(=O)NCc5ccco5)CC4)cc3c2CC(F)(F)F)cc1OC [Example 358, 4-(2-(3,4-dimethoxyphenyl)-3-(2,2,2-trifluoroethyl)-1H-indol-5-yl)-N-(furan-2-ylmethyl)piperidine-1-carboxamide]"
6,2940,"COc1ccc(-c2[nH]c3ccc(C4CCN(C(=O)CCC(=O)N(C)C)CC4)cc3c2CC(F)(F)F)cc1OC [Example 346, 4-(4-(2-(3,4-dimethoxyphenyl)-3-(2,2,2-trifluoroethyl)-1H-indol-5-yl)piperidin-1-yl)-N,N-dimethyl-4-oxobutanamide]"
7,1330,"COc1ccc(-c2[nH]c3ccc(C4CCN(CC(=O)N5CCN(c6ncccn6)CC5)CC4)cc3c2CC(F)(F)F)cc1OC [Example 368, 2-(4-(2-(3,4-dimethoxyphenyl)-3-(2,2,2-trifluoroethyl)-1H-indol-5-yl)piperidin-1-yl)-1-(4-(pyrimidin-2-yl)piperazin-1-yl)ethan-1-one]"
8,2170,"COc1ccc(-c2[nH]c3ccc(C4CCN(C(=O)CN(C)C)CC4)cc3c2CC(F)F)cc1OC [Example 399, 1-(4-(3-(2,2-difluoroethyl)-2-(3,4-dimethoxyphenyl)-1H-indol-5-yl)piperidin-1-yl)-2-(dimethylamino)ethan-1-one]"
9,3430,"CCc1c(-c2ccc(OC)c(OC)c2)[nH]c2cc(C)c(C3CCNCC3)cc12 [Example 396, 2-(3,4-dimethoxyphenyl)-3-ethyl-6-methyl-5-(piperidin-4-yl)-1H-indole, HCl]"
10,441,"COc1ccc(-c2[nH]c3ccc(C4CCN(CC(=O)N(C)CCN(C)C)CC4)cc3c2CC(F)(F)F)cc1OC [Example 367, 2-(4-(2-(3,4-dimethoxyphenyl)-3-(2,2,2-trifluoroethyl)-1H-indol-5-yl)piperidin-1-yl)-N-(2-(dimethylamino)ethyl)-N-methylacetamide]"
11,2310,"COc1ccc(-c2[nH]c3ccc(C4CCN(CC(=O)NCCc5ccc(S(N)(=O)=O)cc5)CC4)cc3c2CC(F)(F)F)cc1OC [Example 384, 2-(4-(2-(3,4-dimethoxyphenyl)-3-(2,2,2-trifluoroethyl)-1H-indol-5-yl)piperidin-1-yl)-N-(4-sulfamoylphenethyl)acetamide]"
12,267,"COc1ccc(-c2[nH]c3ccc(C4CCN(CC(=O)N5CCC(N6CCCCC6)CC5)CC4)cc3c2CC(F)(F)F)cc1OC [Example 359, 1-([1,4′-bipiperidin]-1′-yl)-2-(4-(2-(3,4-dimethoxyphenyl)-3-(2,2,2-trifluoroethyl)-1H-indol-5-yl)piperidin-1-yl)ethan-1-one]"
13,2420,"COc1ccc(-c2[nH]c3ccc(C4CCN(CC(=O)N5CCN(C(C)=O)CC5)CC4)cc3c2CC(F)(F)F)cc1OC [Example 361, 1-(4-acetylpiperazin-1-yl)-2-(4-(2-(3,4-dimethoxyphenyl)-3-(2,2,2-trifluoroethyl)-1H-indol-5-yl)piperidin-1-yl)ethan-1-one]"
14,27800,"COc1ccc(-c2[nH]c3ccc(C4CCN(C(=O)[C@@H]5CCCN5C(C)=O)CC4)cc3c2CC(F)(F)F)cc1OC [Example 336, (S)-1-(2-(4-(2-(3,4-dimethoxyphenyl)-3-(2,2,2-trifluoroethyl)-1H-indol-5-yl)piperidine-1-carbonyl)pyrrolidin-1-yl)ethan-1-one]"
15,17500,"CCN1CCCC(N2CCC(c3ccc4[nH]c(-c5ccc(OC)c(OC)c5)c(C)c4c3)CC2)C1 (centres unmarked) [Example 24, 2-(3,4-dimethoxyphenyl)-5-(1′-ethyl-[1,3′-bipiperidin]-4-yl)-3-methyl-1H-indole]"
16,1560,"COc1ccc(-c2[nH]c3ccc(C4CCN(C(=O)CCCN(C)C)CC4)cc3c2CC(F)(F)F)cc1OC [Example 351, 1-(4-(2-(3,4-dimethoxyphenyl)-3-(2,2,2-trifluoroethyl)-1H-indol-5-yl)piperidin-1-yl)-4-(dimethylamino)butan-1-one]"
17,555,"COc1ccc(-c2[nH]c3ccc(C4CCN(CC(=O)NCCCN(C)C)CC4)cc3c2CC(F)(F)F)cc1OC [Example 382, 2-(4-(2-(3,4-dimethoxyphenyl)-3-(2,2,2-trifluoroethyl)-1H-indol-5-yl)piperidin-1-yl)-N-(3-(dimethylamino)propyl)acetamide]"
18,4250,"COc1ccc(-c2[nH]c3ccc(C4CCN(CC(=O)NCC(N)=O)CC4)cc3c2CC(F)(F)F)cc1OC [Example 385, N-(2-amino-2-oxoethyl)-2-(4-(2-(3,4-dimethoxyphenyl)-3-(2,2,2-trifluoroethyl)-1H-indol-5-yl)piperidin-1-yl)acetamide]"
19,2460,"COc1ccc(-c2[nH]c3ccc(C4CCN(CC(=O)N5CCC[C@@H]5CO)CC4)cc3c2CC(F)(F)F)cc1OC [Example 371, (R)-2-(4-(2-(3,4-dimethoxyphenyl)-3-(2,2,2-trifluoroethyl)-1H-indol-5-yl)piperidin-1-yl)-1-(2-(hydroxymethyl)pyrrolidin-1-yl)ethan-1-one]"
20,5910,"COc1ccc(-c2[nH]c3ccc(C4CCN(CC(=O)NCC#N)CC4)cc3c2CC(F)(F)F)cc1OC [Example 381, N-(cyanomethyl)-2-(4-(2-(3,4-dimethoxyphenyl)-3-(2,2,2-trifluoroethyl)-1H-indol-5-yl)piperidin-1-yl)acetamide]"
21,8650,"CCC(C)NC(=O)CN1CCC(c2ccc3[nH]c(-c4ccc(OC)c(OC)c4)c(CC(F)(F)F)c3c2)CC1 (centres unmarked) [Example 377, N-(sec-butyl)-2-(4-(2-(3,4-dimethoxyphenyl)-3-(2,2,2-trifluoroethyl)-1H-indol-5-yl)piperidin-1-yl)acetamide]"
22,1950,"COc1ccc(-c2[nH]c3ccc(C4CCN(CC(=O)N5CCC(C(N)=O)CC5)CC4)cc3c2CC(F)(F)F)cc1OC [Example 369, 1-(2-(4-(2-(3,4-dimethoxyphenyl)-3-(2,2,2-trifluoroethyl)-1H-indol-5-yl)piperidin-1-yl)acetyl)piperidine-4-carboxamide]"
23,≥ 50000,"COc1ccc(-c2[nH]c3ccc(C4CCN(C(=O)NCCc5ccccc5)CC4)cc3c2CC(F)(F)F)cc1OC [Example 357, 4-(2-(3,4-dimethoxyphenyl)-3-(2,2,2-trifluoroethyl)-1H-indol-5-yl)-N-phenethylpiperidine-1-carboxamide]"
24,≥ 50000,"COc1ccc(-c2[nH]c3ccc(C4CCN(C(=O)Cc5ccc(N(C)C)cc5)CC4)cc3c2CC(F)(F)F)cc1OC [Example 338, 1-(4-(2-(3,4-dimethoxyphenyl)-3-(2,2,2-trifluoroethyl)-1H-indol-5-yl)piperidin-1-yl)-2-(4-(dimethylamino)phenyl)ethan-1-one]"
25,40800,"COc1ccc(-c2[nH]c3ccc(C4CCN(C(=O)CCCNC(C)=O)CC4)cc3c2CC(F)(F)F)cc1OC [Example 343, N-(4-(4-(2-(3,4-dimethoxyphenyl)-3-(2,2,2-trifluoroethyl)-1H-indol-5-yl)piperidin-1-yl)-4-oxobutyl)acetamide]"
26,9730,"COc1ccc(-c2[nH]c3ccc(C4CCN(C(=O)COc5cccnc5)CC4)cc3c2CC(F)(F)F)cc1OC [Example 349, 1-(4-(2-(3,4-dimethoxyphenyl)-3-(2,2,2-trifluoroethyl)-1H-indol-5-yl)piperidin-1-yl)-2-(pyridin-3-yloxy)ethan-1-one]"
